Test results from the supplement of paper PMC8882468.

Key:
Experiment in all cases: CTG-3D luminescence at 96 h relative to day-0 seeding control (ratio to day 0); higher = more growth / less cytotoxicity; PDxO 3D drug screen, 96 h, CTG-3D normalised to day-0 seeding control.
HCI-001 = system: HCI-001 (organoid from a triple-negative breast cancer xenograft)
HCI-005.E2 = system: HCI-005.E2 (organoid from a breast cancer xenograft with a HER2-positive history)
HCI-003.E2 = system: HCI-003.E2 (organoid from an ER-positive breast cancer xenograft)
HCI-017.E2 = system: HCI-017.E2 (organoid from an ER-positive breast cancer xenograft)
HCI-024 = system: HCI-024 (organoid from a breast cancer xenograft)
HCI-012 = system: HCI-012 (organoid from a breast cancer xenograft)

CC(C)(C(=O)NCC(F)(F)C(F)(F)F)C(=O)N[C@@H]1C(=O)Nc2ccccc2-c2ccccc21
CTG-3D luminescence at 96 h
Conditions | 12.5 pM | 0.00025 µM | 0.005 µM | 0.1 µM | 1 µM | 10 µM | 100 µM | 625 fM
HCI-001, days in culture: 240 | 1.46 | 1.17 | 0.87 | 0.976 | 1.16 | 0.943 | 1.23 | 1.67
HCI-001, days in culture: 260 | 2.5 | 1.03 | 1.58 | 1.23 | 1.44 | 1.29 | 1.15 | 2.09
HCI-001, days in culture: 269 | 1.46 | 1.61 | 1.38 | 1.81 | 1.67 | 2.38 | 1.78 | 1.58
HCI-001, days in culture: 327 | 1.38 | 1.27 | 1.54 | 1.77 | 1.29 | 1.04 | 1.38 | 1.83
HCI-001, days in culture: 346 | 1.54 | 1.31 | 1.17 | 1.11 | 1.26 | 1.31 | 1.57 | 1.29
HCI-001, days in culture: 364 | 1.49 | 1.25 | 1.38 | 1.09 | 1.14 | 1.29 | 0.937 | 1.4
HCI-012, days in culture: 143 | 1.62 | 1.71 | 1.71 | 2.2 | 2.22 | 2.41 | 1.37 | 1.72
HCI-012, days in culture: 162 | 2.77 | 1.65 | 1.36 | 2.46 | 1.82 | 2.59 | 1.53 | 3.16
HCI-012, days in culture: 201 | 2.67 | 2.23 | 1.91 | 1.9 | 2.48 | 1.51 | 2.23 | 1.61
HCI-017.E2, days in culture: 85 | 2.5 | 2.8 | 2.42 | 1.44 | 1.19 | 1.24 | 1.25 | 2.29
HCI-024, days in culture: 105 | 1.79 | 1.33 | 0.962 | 1.85 | 1.67 | 2.09 | 1.22 | 1.91
HCI-024, days in culture: 122 | 2.28 | 1.94 | 1.8 | 1.67 | 1.64 | 2.55 | 1.21 | 3.41
HCI-024, days in culture: 163 | 2.14 | 2.11 | 1.38 | 2.27 | 2.12 | 2.52 | 1.71 | 2.36

CTG-3D luminescence at 96 h
Conditions | 12.5 pM | 0.00025 µM | 0.005 µM | 0.1 µM | 1 µM | 10 µM | 100 µM | 625 fM
HCI-003.E2 | 2.16 | 2.26 | 2.01 | 2.28 | 1.96 | 2.11 | 0.942 | 1.86
HCI-005.E2 | 1.47 | 1.48 | 1.45 | 1.8 | 1.18 | 1.29 | 1.03 | 1.54
HCI-017.E2 | 1.84 | 2.1 | 2.09 | 2.12 | 2.04 | 1.78 | 1.23 | 2.06
